In assay [1] the target is T1, ULK1 kinase domain (Homo sapiens, UniProt O75385).
T1 construct: The protein expression construct of ULK1 kinase domain (1-283) was cloned; 6His-Sumo (N, cleaved yes); made in house; host or cells: E. coli BL21 star, co-expressed with lambda phosphatase
T1 sequence (O75385 1-283): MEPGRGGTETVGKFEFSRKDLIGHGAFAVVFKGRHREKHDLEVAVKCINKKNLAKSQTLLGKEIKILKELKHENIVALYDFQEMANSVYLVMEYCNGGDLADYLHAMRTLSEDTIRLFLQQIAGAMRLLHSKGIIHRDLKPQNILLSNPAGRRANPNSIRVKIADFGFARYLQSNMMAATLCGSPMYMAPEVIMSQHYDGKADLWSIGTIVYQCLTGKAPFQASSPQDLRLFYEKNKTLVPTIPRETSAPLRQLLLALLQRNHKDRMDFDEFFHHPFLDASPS
The assay can be described thus: Differential scanning fluorimetry (thermal shift). The assay is classed as binding. The conditions noted are these: 2 μM ULK1 kinase domain, 50 μM compound, vs DMSO reference. Background: Differential scanning fluorimetry follows unfolding on heating by fluorescence.

The target in assay [2] is T2, ULK1 kinase (Homo sapiens, UniProt O75385).
T2 construct: purchased Reaction Biology
T2 sequence (O75385 1-1050): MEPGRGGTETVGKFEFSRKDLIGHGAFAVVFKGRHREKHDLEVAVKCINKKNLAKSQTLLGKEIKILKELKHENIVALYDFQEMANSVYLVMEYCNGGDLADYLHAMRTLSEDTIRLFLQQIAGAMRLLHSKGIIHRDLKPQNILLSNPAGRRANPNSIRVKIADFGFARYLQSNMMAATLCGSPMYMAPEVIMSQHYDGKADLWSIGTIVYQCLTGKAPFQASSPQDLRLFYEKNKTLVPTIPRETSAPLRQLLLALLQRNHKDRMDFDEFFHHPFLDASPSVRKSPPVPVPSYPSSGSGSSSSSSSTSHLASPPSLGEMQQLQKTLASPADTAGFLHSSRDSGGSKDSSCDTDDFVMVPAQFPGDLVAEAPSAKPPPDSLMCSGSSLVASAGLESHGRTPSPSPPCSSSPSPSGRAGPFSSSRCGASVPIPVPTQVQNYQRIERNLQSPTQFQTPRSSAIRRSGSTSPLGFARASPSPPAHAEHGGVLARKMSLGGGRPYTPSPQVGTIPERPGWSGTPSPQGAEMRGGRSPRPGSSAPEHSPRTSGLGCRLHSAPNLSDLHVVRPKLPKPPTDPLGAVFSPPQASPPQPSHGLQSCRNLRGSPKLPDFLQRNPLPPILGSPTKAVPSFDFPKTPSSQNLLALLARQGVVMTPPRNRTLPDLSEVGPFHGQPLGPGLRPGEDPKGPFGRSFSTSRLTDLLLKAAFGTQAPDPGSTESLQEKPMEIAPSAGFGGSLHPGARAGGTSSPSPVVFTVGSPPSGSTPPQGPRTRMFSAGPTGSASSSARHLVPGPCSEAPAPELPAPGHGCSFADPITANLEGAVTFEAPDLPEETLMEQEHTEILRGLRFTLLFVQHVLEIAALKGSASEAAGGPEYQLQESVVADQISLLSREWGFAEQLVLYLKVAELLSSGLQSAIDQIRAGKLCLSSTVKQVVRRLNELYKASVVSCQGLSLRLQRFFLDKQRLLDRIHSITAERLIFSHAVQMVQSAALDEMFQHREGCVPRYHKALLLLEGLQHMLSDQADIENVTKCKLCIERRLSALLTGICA
The assay can be described thus: Radiometric HotSpot kinase assay (Reaction Biology). The assay is classed as biochemical. The conditions noted are these: activity-based ULK1 kinase assay.

Assay [3] concerns the target T3, GST-ULK1 (Homo sapiens, UniProt O75385).
T3 sequence (O75385 1-1050): T2 sequence (O75385 1-1050)
The assay can be described thus: LanthaScreen ULK1 inhibitor assay. The conditions noted are these: 5 nM GST-ULK1, 30 nM tracer, 20 μM ATP, 1 hr room temperature. The assay is classed as biochemical. On the technique in general: Time-resolved FRET reads energy transfer from a long-lived donor to a nearby acceptor.

In the case of `CC[C@@H](CO)NC(=O)c1cccc(-c2cnc3[nH]c(-c4ccc(F)cc4)cc3c2)c1` [Compound 54, (S)-3-(2-(4-Fluorophenyl)-1H-pyrrolo[2,3-b]pyridin-5-yl)-N-(1-hydroxybutan-2-yl)benzamide], the thermal shift (ΔTm) at 50 µM in assay [1] came to 1.62 °C. Moreover, the half-inhibitory concentration (IC50) in assay [2] was found to be 1470 nM; in assay [3], 5850 nM.
For `O=C(NC(CO)CO)c1cccc(-c2cnc3[nH]c(-c4ccc(F)cc4)cc3c2)n1` [Compound 55, N-(1,3-Dihydroxypropan-2-yl)-6-(2-(4-fluorophenyl)-1H-pyrrolo[2,3-b]pyridin-5-yl)picolinamide] the same measures were 8.56 °C, 44 nM and 74 nM.
On the same counts, the results for `CC[C@H](CO)NC(=O)c1cccc(-c2cnc3[nH]c(-c4ccc(F)cc4)cc3c2)n1` [Compound 56, (R)-6-(2-(4-Fluorophenyl)-1H-pyrrolo[2,3-b]pyridin-5-yl)-N-(1-hydroxybutan-2-yl)-picolinamide] are 6.85 °C, 72 nM and 80 nM.
With `O=C(NCC(O)C(F)(F)F)c1cccc(-c2cnc3[nH]c(-c4ccc(F)cc4)cc3c2)n1` (stereo not drawn) [Compound 57, 6-(2-(4-Fluorophenyl)-1H-pyrrolo[2,3-b]pyridin-5-yl)-N-(3,3,3-trifluoro-2-hydroxy-propyl)picolinamide], the ΔTm at 50 µM in assay [1] stood at 8.73 °C. The results for the IC50 in assay [2] and in assay [3] were 49 nM and 20 nM, respectively.
In the case of `CC[C@H](CO)NC(=O)c1nc(-c2cnc3[nH]c(-c4ccc(F)cc4)cc3c2)cs1` [Compound 62, (R)-4-(2-(4-Fluorophenyl)-1H-pyrrolo[2,3-b]pyridin-5-yl)-N-(1-hydroxybutan-2-yl)-thiazole-2-carboxamide], the ΔTm at 50 µM in assay [1] turned out to be 4.81 °C. Further, the IC50 in assay [2] worked out at 78 nM; in assay [3] it was 182 nM.
Turning to `O=C(NC(CO)CO)c1nc(-c2cnc3[nH]c(-c4ccc(F)cc4)cc3c2)cs1` [Compound 63, N-(1,3-Dihydroxypropan-2-yl)-4-(2-(4-fluorophenyl)-1H-pyrrolo[2,3-b]pyridin-5-yl)-thiazole-2-carboxamide], the ΔTm at 50 µM in assay [1] stood at 6.46 °C. The IC50 in assay [2] amounted to 55 nM; in assay [3] it was 103 nM.
On the same counts, the results for `O=C(NCC1(O)CCCC1)c1nc(-c2cnc3[nH]c(-c4ccc(F)cc4)cc3c2)cs1` [Compound 72, 4-(2-(4-fluorophenyl)-1H-pyrrolo-[2,3-b]pyridin-5-yl)-N-((1-hydroxy-cyclopentyl)methyl)thiazole-2-carboxamide] are 7.96 °C, 50 nM and 36 nM.
For `O=C(c1nc(-c2cnc3[nH]c(-c4ccc(F)cc4)cc3c2)cs1)N1CC(F)C1` [Compound 74, (3-fluoroazetidin-1-yl)(4-(2-(4-fluorophenyl)-1H-pyrrolo[2,3-b]-pyridin-5-yl)thiazol-2-yl)methanone] the same measures were 1.87 °C, 644 nM and 665 nM.
On the same counts, the results for `C[C@H](CO)NC(=O)c1nc(-c2cnc3[nH]c(-c4ccc(F)cc4)cc3c2)cs1` [Compound 77, (R)-4-(2-(4-fluorophenyl)-1H-pyrrolo[2,3-b]pyridin-5-yl)-N-(1-hydroxypropan-2-yl)thiazole-2-carboxamide] are 4.54 °C, 348 nM and 741 nM.
Turning to `O=C(NC1CNC1)c1nc(-c2cnc3[nH]c(-c4ccc(F)cc4)cc3c2)cs1` [Compound 80, N-(azetidin-3-yl)-4-(2-(4-fluoro-phenyl)-1H-pyrrolo[2,3-b]pyridin-5-yl)thiazole-2-carboxamide], the ΔTm at 50 µM in assay [1] was 4.99 °C. Besides, the IC50 in assay [2] was 502 nM; in assay [3], 966 nM.
As for `Fc1ccc(-c2cc3c(NCC(F)(F)F)c(C(F)(F)F)cnc3[nH]2)cc1` [Compound 81, 2-(4-fluorophenyl)-N-(2,2,2-trifluoroethyl)-5-(trifluoromethyl)-1H-pyrrolo[2,3-b]pyridin-4-amine], the ΔTm at 50 µM in assay [1] worked out at 5.41 °C. Further, the IC50 in assay [2] was 15 nM; in assay [3] it was 14 nM.
In the case of `Fc1ccc(-c2cc3c(NC4CCC4)c(C(F)(F)F)cnc3[nH]2)cc1` [Compound 82, N-cyclobutyl-2-(4-fluorophenyl)-5-(trifluoro-methyl)-1H-pyrrolo[2,3-b]pyridin-4-amine], in assay [1], the ΔTm at 50 µM came out at 4.39 °C. Further, the figures for the IC50 in assay [2] and in assay [3] were 9 nM and 24 nM, respectively.
Consider `FC(F)(F)c1cnc2[nH]c(C3CCOCC3)cc2c1NC1CCNC1` (stereo not drawn) [Compound 83, N-(pyrrolidin-3-yl)-2-(tetrahydro-2H-pyran-4-yl)-5-(trifluoromethyl)-1H-pyrrolo[2,3-b]-pyridin-4-amine], for which, in assay [1], the ΔTm at 50 µM was 6.81 °C. The IC50 in assay [2] is 401 nM; in assay [3], 208 nM.
As for `FC(F)(F)c1cnc2[nH]c(C3=CCOCC3)cc2c1NC1CCNC1` (stereo not drawn) [Compound 84, 2-(3,6-dihydro-2H-pyran-4-yl)-N-(pyrrolidin-3-yl)-5-(trifluoromethyl)-1H-pyrrolo[2,3-b]pyridin-4-amine], the ΔTm at 50 µM in assay [1] was 7.13 °C. The IC50 in assay [2] was found to be 549 nM; in assay [3], 412 nM.
`FC1(F)CN(c2c(C(F)(F)F)cnc3[nH]c(C4=CCOCC4)cc23)C1` [Compound 86, 4-(3,3-Difluoroazetidin-1-yl)-2-(3,6-dihydro-2H-pyran-4-yl)-5-(trifluoromethyl)-1H-pyrrolo[2,3-b]pyridine]: the shift in melting temperature (ΔTm) at 50 µM in assay [1] was determined as 6.82 °C. Besides, the IC50 in assay [2] was determined as 56 nM; in assay [3], 172 nM.
Take `FC(F)(F)c1cnc2[nH]c(C3CCOCC3)cc2c1NCCN1CCOCC1` [Compound 88, N-(2-morpholinoethyl)-2-(tetrahydro-2H-pyran-4-yl)-5-(trifluoromethyl)-1H-pyrrolo-[2,3-b]pyridin-4-amine]: the ΔTm at 50 µM in assay [1] came to 2.37 °C. The results for the IC50 in assay [2] and in assay [3] were 4450 nM and 4520 nM, respectively.
Turning to `FC(F)(F)c1cnc2[nH]c(C3CCOCC3)cc2c1NCCCN1CCCC1` [Compound 90, N-(3-(pyrrolidin-1-yl)propyl)-2-(tetrahydro-2H-pyran-4-yl)-5-(trifluoromethyl)-1H-pyrrolo[2,3-b]pyridin-4-amine], in assay [1], the ΔTm at 50 µM was determined as 9.23 °C. The results for the IC50 in assay [2] and in assay [3] were 155 nM and 145 nM, respectively.
For `FC(F)(F)c1cnc2[nH]c(C3=CCOCC3)cc2c1NCCCN1CCCC1` [Compound 91, 2-(3,6-dihydro-2H-pyran-4-yl)-N-(3-(pyrrolidin-1-yl)propyl)-5-(trifluoromethyl)-1H-pyrrolo[2,3-b]pyridin-4-amine] the same measures were 9.77 °C, 110 nM and 167 nM.
For `FC1(F)CCN(c2c(C(F)(F)F)cnc3[nH]c(C4=CCOCC4)cc23)CC1` [Compound 93, 4-(4,4-Difluoropiperidin-1-yl)-2-(3,6-dihydro-2H-pyran-4-yl)-5-(trifluoromethyl)-1H-pyrrolo[2,3-b]pyridine] the same measures were 2.03 °C, 7070 nM and 8280 nM.
Take `CN1CCC(c2cc3c(NCCN4CCOCC4)c(C(F)(F)F)cnc3[nH]2)CC1` [Compound 95, 2-(1-methylpiperidin-4-yl)-N-(2-morpholinoethyl)-5-(trifluoromethyl)-1H-pyrrolo[2,3-b]pyridin-4-amine]: the ΔTm at 50 µM in assay [1] turned out to be 0.49 °C. Further, the IC50 turned out to be 758 nM in assay [2] and 917 nM in assay [3].
For `CN1CC=C(c2cc3c(NCCCN4CCCC4)c(C(F)(F)F)cnc3[nH]2)CC1` [Compound 97, 2-(1-methyl-1,2,3,6-tetrahydropyridin-4-yl)-N-(3-(pyrrolidin-1-yl)propyl)-5-(trifluoro-methyl)-1H-pyrrolo[2,3-b]pyridin-4-amine] the same measures were 7.07 °C, 2380 nM and 541 nM.

Usually ΔTm stands for the shift of the melting midpoint relative to a reference. By IC50 is commonly meant the concentration at which inhibition is half-maximal. High values mean weaker potency in that assay, low ones greater potency in that assay.

For the origin of these results see US20250042895A1, “INHIBITORS OF ULK1 AND METHODS OF USE” (H. LEE MOFFITT CANCER CENTER AND RESEARCH INSTITUTE, INC., priority 2021, published 2025).
